Numbering of substitutions follows the chain as printed. Square brackets hold non-standard residues; d marks the D form. Peptide text beside a SMILES is read from it. pS = N[C@@H](COP(=O)(O)O)C(=O)O
Columns and labels:
Format in all cases: binding
14-3-3ζΔC12 = biological target: T1, 14-3-3ζΔC12 (Homo sapiens, UniProt P63104); test: ITC of Cby peptides titrated into 14-3-3ζΔC12; conditions: 14-3-3ζΔC12 in ITC cell; for n (binding stoichiometry of monomeric 14-3-3 and Cby peptide): 25°C
T1 construct: The 14-3-3ζΔC12, where the 12 C-terminal residues were deleted, was then generated from the full-length construct; His tag (TEV-cleavable) (N, cleaved yes); made in house; host or cells: Escherichia coli BL21 (DE3) pLysS
T1 sequence (P63104 1-233 limits assumed): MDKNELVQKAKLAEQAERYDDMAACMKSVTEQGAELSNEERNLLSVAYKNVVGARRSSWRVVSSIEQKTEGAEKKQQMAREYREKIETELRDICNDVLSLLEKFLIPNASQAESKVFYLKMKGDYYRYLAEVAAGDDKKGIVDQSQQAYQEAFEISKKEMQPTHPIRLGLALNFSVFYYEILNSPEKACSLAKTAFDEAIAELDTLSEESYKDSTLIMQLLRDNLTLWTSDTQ
Source text: (§1) The human14-3-3ζ ORF purchased from GeneCopoeia was transferred into Gateway pDEST17 vector (Invitrogen). The 14-3-3ζΔC12, where the 12 C-terminal residues were deleted, was then generated from the full-length construct using QuikChange II Site-Directed Mutagenesis Kit (Strategene). Both full-length 14-3-3ζ and 14-3-3ζΔC12 were expressed as N-terminally His-tagged protein in Escherichia coli (E. coli) BL21 (DE3) pLysS in M9 medium. For unlabeled protein, protein expression was induced at an O.D.600 of 0.9 by adding 0.75 mM IPTG at 18°C for 24 h. The ^15N, ^13C, ^2H labeled 14-3-3ζΔC12 was produced by growing E. coli in deuterated M9 medium. Cells adapted to 70% D2O were used to inoculate a 1 L culture of M9 prepared in 100% D2O. Cells were grown at 37°C and overexpression was induced at an O.D.600 of 0.6 with 0.75 mM IPTG. After a 60-h induction at 18°C, the cells were harvested. All 14-3-3ζ constructs used in this study were purified from the crude lysate by affinity chromatography using Ni Sepharose Fast Flow beads (Amersham Biosciences). The tag was then cleaved by overnight incubation with His-tagged tobacco etch virus (TEV) protease at 25°C. The cleaved 14-3-3ζ, which retains an N-terminal glycine, was purified by passing the mixture through Ni Sepharose Fast Flow beads. The final yields for the 14-3-3ζ proteins were ~50 mg per L of M9 media (including deuterated media).
(§2) The Cby peptides used in this study were purchased from GenScript USA Inc. and the TUFTS University Core Facility. From GenScript USA Inc.: Cby 13-mer (NH2-^12KTPPRKSASLSNL^24-COOH), Cby S20D 13-mer (NH2-^12KTPPRKSADLSNL^24-COOH), Cby S20E 13-mer (NH2-^12KTPPRKSAELSNL^24-COOH), pCby 13-mer (NH2-^12KTPPRKSApSLSNL^24-COOH) and pCby 18-mer ((NH2-^12KTPPRKSApSLSNLHSLDR^29-COOH). From TUFTS: pCby 7-mer (Ac-^16RKSApSLS^22-NH2), pCby 11-mer (NH2-^12KTPPRKSApSLS^22-NH2), pCby S22P 7-mer (Ac-^16RKSApSLP^22-NH2), pCby S22P 13-mer (NH2-^12KTPPRKSApSLPNL^24-COOH) and pCby S22P 18-mer ([…]). Peptides were dissolved and dialyzed in 50 mM sodium phosphate, 100 mM NaCl at pH 6.8 for ITC and NMR experiments.
(§3) ITC experiments were performed on a VP-ITC instrument (MicroCal) at 25°C. The protein and peptide samples were dialyzed into a buffer containing 50 mM sodium phosphate, 100 mM NaCl, 1 mM DTT at pH 6.8 and degassed before the experiments. In a typical experiment, 5 μL aliquots of ~1–2 mM peptide were titrated stepwise into the 1.4 mL sample cell containing ~100–200 μM 14-3-3ζ. The association constant (Ka), molar binding stoichiometry (n) and the binding enthalpy (ΔH), entropy (ΔS) and Gibbs free energy (ΔG) were determined by fitting the binding isotherm to a one-site model with MicroCal Origin7 software. All ITC experiments were performed in duplicate. A duplicate set of thermodynamic derived binding parameters are found in S1 Table. Peptide and protein concentrations were determined from amino acid analysis (Amino Acid Analysis Facility, SickKids, Toronto, ON).

14-3-3ζ = biological target: T2, 14-3-3ζ (Homo sapiens, UniProt P63104); test: ITC of Cby peptides titrated into 14-3-3ζ; conditions: for Kd: 25°C (298.15 K); for n (binding stoichiometry of monomeric 14-3-3 and Cby peptide): 25°C; for T∆S / ∆G / ∆H / TΔS / ΔG / ΔH: 298.15 K; for T∆S / ∆G / ∆H: duplicate set (S1 Table); for TΔS / ΔG / ΔH: pH 6.8, Table 1 set of duplicate experiments
T2 construct: Both full-length 14-3-3ζ and 14-3-3ζΔC12 were expressed as N-terminally His-tagged protein; His tag (TEV-cleavable) (N, cleaved yes); made in house; host or cells: Escherichia coli BL21 (DE3) pLysS
T2 sequence (P63104 1-245): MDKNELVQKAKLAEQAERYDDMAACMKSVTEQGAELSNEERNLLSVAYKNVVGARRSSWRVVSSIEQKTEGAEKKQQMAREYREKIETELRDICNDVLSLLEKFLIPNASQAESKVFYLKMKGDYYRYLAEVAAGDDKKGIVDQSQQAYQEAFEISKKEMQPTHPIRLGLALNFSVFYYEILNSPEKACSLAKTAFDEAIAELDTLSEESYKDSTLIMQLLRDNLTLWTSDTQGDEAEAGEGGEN
Source text: as §1, §2, §3

14-3-3ζ K49A = biological target: T3, 14-3-3ζ K49A (Homo sapiens, UniProt P63104, K49A); test: ITC of Cby peptides titrated into 14-3-3ζ K49A; conditions: for n (binding stoichiometry of monomeric 14-3-3 and Cby peptide) / TΔS / ΔG / ΔH / T∆S / ∆G / ∆H: 14-3-3ζ K49A in ITC cell; for n (binding stoichiometry of monomeric 14-3-3 and Cby peptide): 25°C, pH 6.8; for TΔS / ΔG / ΔH / T∆S / ∆G / ∆H: 298.15 K; for ΔΔG of binding, 14-3-3ζ K49A compared to WT 14-3-3ζ / effect of 14-3-3ζ K49A mutation on binding affinity (fold reduction): ITC; for ΔΔG of binding, 14-3-3ζ K49A compared to WT 14-3-3ζ: 18-mer peptides; for effect of 14-3-3ζ K49A mutation on binding affinity (fold reduction): versus WT 14-3-3ζ
T3 construct: His tag (TEV-cleavable) (N, cleaved yes); made in house
T3 sequence (P63104 1-245 K49A): T2 sequence (P63104 1-245) with K49A
Source text: In numerous crystal structures of 14-3-3 proteins in complex with phosphorylated S/T peptides, the conserved K49 (numbering refers to the ζ isoform) side-chain is observed forming a hydrogen bond with the phosphate group on pS/pT (illustrated in S3 Fig with an elucidated 14-3-3ζ/Raf1 structure). With Cby’s S22 side-chain juxtaposed between 14-3-3ζ residues K49 and R56, the K49 side-chain is sterically hindered from contacting pS20. As such, we speculated that the increases in binding affinity to 14-3-3ζ observed for the S22P mutant peptides might be the result of the favorable contacts between K49 and pS20 facilitated by the proline-induced conformational changes. To test this, a K49A mutation was introduced into 14-3-3ζ and ITC titrations were performed with 18-mer WT and S22P Cby peptides.
as §2, §3

[1] = pH 6.8, Table 1 set of duplicate experiments
[2] = pH 6.8, duplicate set (S1 Table)
[3] = 298.15 K, Table 1 set of duplicate experiments
[4] = 298.15 K, duplicate set (S1 Table)
[5] = 50 mM sodium phosphate, 100 mM NaCl, 1 mM DTT, pH 6.8, one-site model, Table 1 set of duplicate experiments
[6] = Table 1 set of duplicate experiments

Row | n (binding stoichiometry of monomeric 14-3-3 and Cby peptide) (14-3-3ζΔC12; [1]) | n (binding stoichiometry of monomeric 14-3-3 and Cby peptide) (14-3-3ζΔC12; [2]) | TΔS (14-3-3ζΔC12; [3]) [kcal/mol] | ΔG (14-3-3ζΔC12; [3]) [kcal/mol] | ΔH (14-3-3ζΔC12; [3]) [kcal/mol] | T∆S (14-3-3ζΔC12; [4]) [kcal/mol] | ∆G (14-3-3ζΔC12; [4]) [kcal/mol] | ∆H (14-3-3ζΔC12; [4]) [kcal/mol] | n (binding stoichiometry of monomeric 14-3-3 and Cby peptide) (14-3-3ζ; [5]) | n (binding stoichiometry of monomeric 14-3-3 and Cby peptide) (14-3-3ζ; [2]) | T∆S (14-3-3ζ) [kcal/mol] | ∆G (14-3-3ζ) [kcal/mol] | ∆H (14-3-3ζ) [kcal/mol] | TΔS (14-3-3ζ) [kcal/mol] | ΔG (14-3-3ζ) [kcal/mol] | ΔH (14-3-3ζ) [kcal/mol] | n (binding stoichiometry of monomeric 14-3-3 and Cby peptide) (14-3-3ζ K49A; [6]) | n (binding stoichiometry of monomeric 14-3-3 and Cby peptide) (14-3-3ζ K49A; duplicate set (S1 Table)) | TΔS (14-3-3ζ K49A; [6]) [kcal/mol] | ΔG (14-3-3ζ K49A; [6]) [kcal/mol] | SMILES | also measured
1 | 0.99 | 1.06 | 4.50 | -6.58 ± 0.04 | -2.08 ± 0.03 | 4.52 | -6.60 ± 0.02 | -2.08 ± 0.03 | 1.00 | 1.07 | 4.07 | -6.67 ± 0.02 | -2.60 ± 0.03 | 3.97 | -6.60 ± 0.02 | -2.63 ± 0.02 |  |  |  |  | CC(C)C[C@H](NC(=O)[C@H](CC(N)=O)NC(=O)[C@H](CO)NC(=O)[C@H](CC(C)C)NC(=O)[C@H](COP(=O)(O)O)NC(=O)[C@H](C)NC(=O)[C@H](CO)NC(=O)[C@H](CCCCN)NC(=O)[C@H](CCCNC(=N)N)NC(=O)[C@@H]1CCCN1C(=O)[C@@H]1CCCN1C(=O)[C@@H](NC(=O)[C@@H](N)CCCCN)[C@@H](C)O)C(=O)O [Cby 13-mer] (H-KTPPRKSA[pS]LSNL-OH) | Kd (14-3-3ζΔC12; 298.15 K, pH 6.8, duplicate set (S1 Table)): 14.5 ± 0.6 µM; Kd (14-3-3ζ; 50 mM sodium phosphate, 100 mM NaCl, 1 mM DTT, pH 6.8, duplicate set (S1 Table)): 12.8 ± 0.5 µM; Kd (14-3-3ζ; [5]): 14.5 ± 0.6 µM
2 |  |  |  |  |  |  |  |  | 1.05 | 1.08 | 0.79 | -8.76 ± 0.02 | -7.97 ± 0.01 | 0.76 | -8.79 ± 0.02 | -8.03 ± 0.02 | 1.07 | 0.97 | 0.67 | -7.80 ± 0.06 | CC(C)C[C@H](NC(=O)[C@H](CO)NC(=O)[C@H](Cc1c[nH]cn1)NC(=O)[C@H](CC(C)C)NC(=O)[C@H](CC(N)=O)NC(=O)[C@@H]1CCCN1C(=O)[C@H](CC(C)C)NC(=O)[C@H](COP(=O)(O)O)NC(=O)[C@H](C)NC(=O)[C@H](CO)NC(=O)[C@H](CCCCN)NC(=O)[C@H](CCCNC(=N)N)NC(=O)[C@@H]1CCCN1C(=O)[C@@H]1CCCN1C(=O)[C@@H](NC(=O)[C@@H](N)CCCCN)[C@@H](C)O)C(=O)N[C@@H](CC(=O)O)C(=O)N[C@@H](CCCNC(=N)N)C(=O)O [Cby 18-mer S22P] (H-KTPPRKSA[pS]LPNLHSLDR-OH) | ΔH (14-3-3ζ K49A; [6]): -7.13 ± 0.03 kcal/mol; T∆S (14-3-3ζ K49A; duplicate set (S1 Table)): 1.17 kcal/mol; ∆G (14-3-3ζ K49A; duplicate set (S1 Table)): -7.84 ± 0.03 kcal/mol; ∆H (14-3-3ζ K49A; duplicate set (S1 Table)): -6.67 ± 0.04 kcal/mol; ΔΔG of binding, 14-3-3ζ K49A compared to WT 14-3-3ζ (14-3-3ζ K49A): ~ 1.0 kcal/mol; effect of 14-3-3ζ K49A mutation on binding affinity (fold reduction) (14-3-3ζ K49A): ~ 5 fold; fold tighter binding than the S22P 7-mer (14-3-3ζ): ~ 9 fold
3 | 1.04 | 1.02 | 3.70 | -7.05 ± 0.03 | -3.35 ± 0.06 | 3.77 | -6.92 ± 0.03 | -3.15 ± 0.04 | 0.96 | 0.94 | 2.91 | -7.24 ± 0.04 | -4.33 ± 0.06 | 2.93 | -7.28 ± 0.03 | -4.35 ± 0.05 | 1.01 | 1.07 | 3.23 | -7.39 ± 0.05 | CC(C)C[C@H](NC(=O)[C@H](COP(=O)(O)O)NC(=O)[C@H](C)NC(=O)[C@H](CO)NC(=O)[C@H](CCCCN)NC(=O)[C@H](CCCNC(=N)N)NC(=O)[C@@H]1CCCN1C(=O)[C@@H]1CCCN1C(=O)[C@@H](NC(=O)[C@@H](N)CCCCN)[C@@H](C)O)C(=O)N[C@@H](CO)C(=O)N[C@@H](CC(N)=O)C(=O)N[C@@H](CC(C)C)C(=O)N[C@@H](Cc1c[nH]cn1)C(=O)N[C@@H](CO)C(=O)N[C@@H](CC(C)C)C(=O)N[C@@H](CC(=O)O)C(=O)N[C@@H](CCCNC(=N)N)C(=O)O [Cby 18-mer] (H-KTPPRKSA[pS]LSNLHSLDR-OH) | ΔH (14-3-3ζ K49A; [6]): -4.16 ± 0.05 kcal/mol; T∆S (14-3-3ζ K49A; duplicate set (S1 Table)): 3.41 kcal/mol; ∆G (14-3-3ζ K49A; duplicate set (S1 Table)): -7.17 ± 0.06 kcal/mol; ∆H (14-3-3ζ K49A; duplicate set (S1 Table)): -3.76 ± 0.07 kcal/mol; ΔΔG of binding, 14-3-3ζ K49A compared to WT 14-3-3ζ (14-3-3ζ K49A): ~ 0.1 kcal/mol; effect of 14-3-3ζ K49A mutation on binding affinity (fold reduction) (14-3-3ζ K49A): does not affect; greater affinity compared to the Cby 7-mer (fold, in words) (14-3-3ζ): nine-fold

Reference: paper PMC4409382, “Structural Analysis of the 14-3-3ζ/Chibby Interaction Involved in Wnt/β-Catenin Signaling” (PLoS ONE, 2015)
